One series is described as follows: logP determination through HPLC (EEC directive 79/831 Annex V. A8, gradient method, acetonitrile/0.1% aqueous phosphoric acid). It counts as physicochemical. Conditions: HPLC.
The molecule `Cc1nc2nc(Cl)c(-c3ncccc3C(F)(F)F)c(N[C@@H](C)C(F)(F)F)n2n1` [Example 1, N-{5-chloro-2-methyl-6-[3-(trifluormethyl)-2-pyridinyl][1,2,4]triazolo-[1,5-a]pyrimidin-7-yl}-N-[(1S)-2,2,2-trifluor-1-methylethyl]amine] gave a chromatographic logP of 2.38.

Staying with this series, now noted: HPLC (gradient method); HPLC.
The molecule `Cc1nc2nc(Cl)c(-c3ncncc3Cl)c(NC(C)C(F)(F)F)n2n1` [Example 2, N-[5-chloro-6-(5-chloro-4-pyrimidinyl)-2-methyl[1,2,4]triazolo[1,5-a]pyrimidin-7-yl]-N-[(1S)-2,2,2-trifluor-1-methylethyl]amine] displayed a chromatographic logP of 2.13.

The series is the same for the next values; noted with them: Table 1, compounds of formula (I); HPLC gradient method, acetonitrile/0.1% aqueous phosphoric acid.
As for `C[C@H](Nc1c(-c2ncccc2[N+](=O)[O-])c(Cl)nc2nc(C3CC3)nn12)C(F)(F)F` (single isomer, unassigned) [Example 16], the logP stood at 2.64.

For `C[C@H](Nc1c(-c2ncccc2[N+](=O)[O-])c(Cl)nc2nc(C3CC3)nn12)C(F)(F)F` (single isomer, unassigned) [Example 17], the logP is given as 2.65 (Iso- mer).

The molecule `CC1CCN(c2c(-c3ncccc3C(F)(F)F)c(Cl)nc3nc(C4CC4)nn23)CC1` [Example 3] yielded a logP of 3.77.

`FC1(F)CCN(c2c(-c3ncccc3C(F)(F)F)c(Cl)nc3nc(C4CC4)nn23)CC1` [Example 4] registered a logP of 3.20.

As for `CC(Nc1c(-c2ncccc2C(F)(F)F)c(Cl)nc2nc(C3CC3)nn12)C(C)(C)C` (stereo not drawn) [Example 5], the logP came out at 3.75.

On to `CC(C)C(C)Nc1c(-c2ncccc2C(F)(F)F)c(Cl)nc2nc(C3CC3)nn12` (stereo not drawn) [Example 6], for which the logP was 3.29.

`CC(Nc1c(-c2ncccc2C(F)(F)F)c(Cl)nc2nc(C3CC3)nn12)C(F)(F)F` (stereo not drawn) [Example 7] gave a logP of 3.01.

`CC(Nc1c(-c2ncncc2Cl)c(Cl)nc2nc(C3CC3)nn12)C(F)(F)F` (stereo not drawn) [Example 8] yielded a logP of 2.69.

Consider `Cc1nc2nc(Cl)c(-c3ncncc3Cl)c(NC(C)C(C)C)n2n1` (stereo not drawn) [Example 9], for which the logP came to 2.31.

As to `Cc1nc2nc(Cl)c(-c3ncccc3C)c(N3CCC(C)CC3)n2n1` [Example 10], the logP is recorded as 3.09.

In the case of `Cc1nc2nc(Cl)c(-c3ncccc3C(F)(F)F)c(NC(C)C(C)(C)C)n2n1` (stereo not drawn) [Example 11], the logP was 2.99.

`Cc1nc2nc(Cl)c(-c3ncccc3C(F)(F)F)c(NC(C)C(C)C)n2n1` (stereo not drawn) [Example 12] registered a logP of 2.68.

In turn, `CC(C)C(C)Nc1c(-c2ncncc2Cl)c(Cl)nc2nc(C3CC3)nn12` (stereo not drawn) [Example 15] came in with a logP of 2.94.

As for `CC(Nc1c(-c2ccccn2)c(Cl)nc2nc(C3CC3)nn12)C(C)(C)C` (stereo not drawn) [Example 18], the logP is reported as 3.09.

`C[C@H](Nc1c(-c2ncc([N+](=O)[O-])cc2Cl)c(Cl)nc2nc(C3CC3)nn12)C(F)(F)F` [Example 19] came in with a logP of 3.26.

As to `CC(Nc1c(-c2ncccc2[N+](=O)[O-])c(Cl)nc2nc(C3CC3)nn12)C(C)(C)C` (stereo not drawn) [Example 20], the logP is recorded as 3.21.

On to `Cc1nc2nc(Cl)c(-c3ncccc3[N+](=O)[O-])c(NC(C)C(C)(C)C)n2n1` (stereo not drawn) [Example 21], for which the logP is 2.60.

Molecule `CC(Nc1c(-c2ccccn2)c(Cl)nc2nc(C3CC3)nn12)C(F)(F)F` (stereo not drawn) [Example 22] displayed a logP of 2.60.

The molecule `CC(Nc1c(-c2ccccn2)c(Cl)nc2nc(C3CC3)nn12)C(F)(F)F` (stereo not drawn) [Example 24] yielded a logP of 2.60.

`CC(C)C(C)Nc1c(-c2ncccc2[N+](=O)[O-])c(Cl)nc2nc(C3CC3)nn12` (stereo not drawn) [Example 25] showed a logP of 2.82.

Molecule `CC(C)C(C)Nc1c(-c2ccccn2)c(Cl)nc2nc(C3CC3)nn12` (stereo not drawn) [Example 27] returned a logP of 2.63.

Take `CC(Nc1c(-c2nc([N+](=O)[O-])ccc2Cl)c(Cl)nc2nc(C3CC3)nn12)C(C)(C)C` (stereo not drawn) [Example 28]: the logP is recorded as 3.86.

In turn, `CC(C)c1nc2nc(Cl)c(-c3ncncc3Cl)c(NC(C)C(F)(F)F)n2n1` (stereo not drawn) [Example 29] returned a logP of 2.90.

In the case of `FC(F)(F)CNc1c(-c2ncncc2Cl)c(Cl)nc2nc(C3CC3)nn12` [Example 30], the logP worked out at 2.37.

`CC(C)c1nc2nc(Cl)c(-c3ncncc3Cl)c(NCC(F)(F)F)n2n1` [Example 31] displayed a logP of 2.56.

As to `CC(C)C(C)Nc1c(-c2ncncc2Cl)c(Cl)nc2nc(C3CC3)nn12` (stereo not drawn) [Example 32], the logP amounted to 3.12.

`CC(Nc1c(-c2ncncc2Cl)c(Cl)nc2nc(C3CC3)nn12)C(C)(C)C` (stereo not drawn) [Example 33]: the logP worked out at 3.50.

Molecule `CC(C)c1nc2nc(Cl)c(-c3ncncc3Cl)c(NC(C)C(C)(C)C)n2n1` (stereo not drawn) [Example 34] showed a logP of 3.67.

With `CC(Nc1c(-c2ncncc2Cl)c(Cl)nc2nc(C3CC3)nn12)C(C)(C)C` (stereo not drawn) [Example 35], the logP turned out to be 3.39.

As for `CC(C)c1nc2nc(Cl)c(-c3ncncc3Cl)c(NC(C)C(C)C)n2n1` (stereo not drawn) [Example 36], the logP is recorded as 3.17.

As to `CC(C)C(C)Nc1c(-c2ncncc2Cl)c(Cl)nc2nc(C3CC3)nn12` (stereo not drawn) [Example 37], the logP turned out to be 2.95.

Take `CC(Nc1c(-c2ncncc2Cl)c(Cl)nc2nc(C3CC3)nn12)C(F)(F)F` (stereo not drawn) [Example 38]: the logP was determined as 2.82.

Consider `FC(F)(F)CNc1c(-c2ccncc2Cl)c(Cl)nc2nc(C3CC3)nn12` [Example 40], for which the logP came to 2.48.

In turn, `FC1(F)CCN(c2c(-c3ncncc3Cl)c(Cl)nc3nc(C4CC4)nn23)CC1` [Example 41] returned a logP of 2.75.

As to `CC(Nc1c(-c2ccncc2Cl)c(Cl)nc2nc(C3CC3)nn12)C(F)(F)F` (stereo not drawn) [Example 42], the logP came out at 2.82.

`CC(C)C(C)Nc1c(-c2ccncc2Cl)c(Cl)nc2nc(C3CC3)nn12` (stereo not drawn) [Example 43] came in with a logP of 3.09.

For the molecule `CC(Nc1c(-c2ccncc2Cl)c(Cl)nc2nc(C3CC3)nn12)C(F)(F)F` (stereo not drawn) [Example 44], the logP amounted to 2.78.

`CC(Nc1c(-c2cc(Cl)sc2Cl)c(Cl)nc2nc(C3CC3)nn12)C(F)(F)F` (stereo not drawn) [Example 46]: the logP was found to be 4.32.

The molecule `FC(F)(F)CNc1c(-c2cc(Cl)sc2Cl)c(Cl)nc2nc(C3CC3)nn12` [Example 47] displayed a logP of 3.85.

In the case of `CC(C)Nc1c(-c2cc(Cl)sc2Cl)c(Cl)nc2nc(C3CC3)nn12` [Example 48], the logP was determined as 4.18.

As for `CC(C)(C)CNc1c(-c2cc(Cl)sc2Cl)c(Cl)nc2nc(C3CC3)nn12` [Example 50], the logP is 5.08.

`CC(C)C(C)Nc1c(-c2ccsc2)c(Cl)nc2nc(C3CC3)nn12` (stereo not drawn) [Example 52] yielded a logP of 3.81.

As to `CC(C)C(C)Nc1c(-c2cc(Cl)sc2Cl)c(Cl)nc2nc(C3CC3)nn12` (stereo not drawn) [Example 53], the logP turned out to be 5.03.

In the case of `CC1CCN(c2c(-c3ccsc3)c(Cl)nc3nc(C4CC4)nn23)CC1` [Example 55], the logP was determined as 4.23.

`FC1(F)CCN(c2c(-c3ccsc3)c(Cl)nc3nc(C4CC4)nn23)CC1` [Example 56] showed a logP of 3.41.

In turn, `C=C(C)CN(CC)c1c(-c2ccsc2)c(Cl)nc2nc(C3CC3)nn12` [Example 57] came in with a logP of 4.13.

In the case of `COCCN(C)c1c(-c2cc(Cl)sc2Cl)c(Cl)nc2nc(C3CC3)nn12` [Example 58], the logP is on record as 4.08.

`CC(Nc1c(-c2ccsc2)c(Cl)nc2nc(C3CC3)nn12)C(F)(F)F` (stereo not drawn) [Example 59] showed a logP of 3.29.

`FC(F)(F)CNc1c(-c2ccsc2)c(Cl)nc2nc(C3CC3)nn12` [Example 60] gave a logP of 2.87.

For the molecule `CC(C)CC(C)Nc1c(-c2ccsc2)c(Cl)nc2nc(C3CC3)nn12` (stereo not drawn) [Example 61], the logP was 4.14.

On to `CC(C)CN(C)c1c(-c2ccsc2)c(Cl)nc2nc(C3CC3)nn12` [Example 63], for which the logP came to 3.90.

Turning to `COCCN(C)c1c(-c2ccsc2)c(Cl)nc2nc(C3CC3)nn12` [Example 64], the logP is on record as 2.91.

Regarding `Clc1nc2nc(C3CC3)nn2c(N2CCCC2)c1-c1ccsc1` [Example 65], the logP came to 3.18.

For `CCCN(CC1CC1)c1c(-c2ccsc2)c(Cl)nc2nc(C3CC3)nn12` [Example 66], the logP is given as 4.32.

`CC1CN(c2c(-c3ccsc3)c(Cl)nc3nc(C4CC4)nn23)CC(C)O1` (stereo not drawn) [Example 67] returned a logP of 3.26.

Take `CC(C)CC(C)Nc1c(-c2cc(Cl)sc2Cl)c(Cl)nc2nc(C3CC3)nn12` (stereo not drawn) [Example 68]: the logP came to 5.42.

Molecule `CCC(C)Nc1c(-c2cc(Cl)sc2Cl)c(Cl)nc2nc(C3CC3)nn12` (stereo not drawn) [Example 69] displayed a logP of 4.56.

Regarding `Clc1cc(-c2c(Cl)nc3nc(C4CC4)nn3c2NC2CCCC2)c(Cl)s1` [Example 70], the logP was 4.82.

On to `CC(C)Nc1c(-c2ccsc2)c(Cl)nc2nc(C3CC3)nn12` [Example 72], for which the logP was 3.07.

The molecule `Clc1nc2nc(C3CC3)nn2c(N2CCOCC2)c1-c1ccsc1` [Example 73] yielded a logP of 2.51.

As for `Clc1nc2nc(C3CC3)nn2c(NC2CCCC2)c1-c1ccsc1` [Example 74], the logP was 3.63.

In turn, `C=C(C)CN(C)c1c(-c2ccsc2)c(Cl)nc2nc(C3CC3)nn12` [Example 75] showed a logP of 3.81.

Molecule `COCCNc1c(-c2cc(Cl)sc2Cl)c(Cl)nc2nc(C3CC3)nn12` [Example 76] yielded a logP of 3.55.

For the molecule `CC(C)(C)CNc1c(-c2ccsc2)c(Cl)nc2nc(C3CC3)nn12` [Example 77], the logP is on record as 3.85.

The molecule `CCC(C)Nc1c(-c2ccsc2)c(Cl)nc2nc(C3CC3)nn12` (stereo not drawn) [Example 78] gave a logP of 3.41.

Regarding `CCCN(CC1CC1)c1c(-c2cc(Cl)sc2Cl)c(Cl)nc2nc(C3CC3)nn12` [Example 79], the logP worked out at 5.71.

`CC(C)CN(C)c1c(-c2cc(Cl)sc2Cl)c(Cl)nc2nc(C3CC3)nn12` [Example 81] came in with a logP of 5.25.

In turn, `Clc1cc(-c2c(Cl)nc3nc(C4CC4)nn3c2N2CCCC2)c(Cl)s1` [Example 82] had a logP of 4.37.

`Clc1cc(-c2c(Cl)nc3nc(C4CC4)nn3c2N2CCCCCC2)c(Cl)s1` [Example 85] came in with a logP of 5.14.

`Clc1cc(-c2c(Cl)nc3nc(C4CC4)nn3c2N2CCOCC2)c(Cl)s1` [Example 89]: the logP was determined as 3.68.
